Data reported in patent US6660721B2, “Anti-HCV nucleoside derivatives” (Hoffmann-la Roche Inc., priority 2001, dated 2003).
Where two headings read alike, the source gives them in different places.

System: HCV replicon RNA in human hepatoma Huh7 cells (cell line 2209-23)
Assay: HCV Replicon assay (Renilla luciferase reporter, 2209-23 cells)
Assay type: cell-based, Hepatitis C virus
Conditions: for IC50: Hepatitis C virus, Huh-7, 72 h, read-out: IC50 (HCV Replicon assay)

Work on Nc1ccn([C@@H]2O[C@H](CO)[C@@H](O)[C@H]2F)c(=O)n1 [2′-Deoxy-2′-fluorocytidine] yielded an IC50 (Renilla luciferase HCV replicon cells 2209-23, three days incubation) of 0.74 µM.

Nc1nc2c(ncn2[C@@H]2O[C@H](CO)[C@@H](O)[C@H]2F)c(=O)[nH]1 [2′-Deoxy-2′-fluoroguanosine] was tested, and the “% reduction of replicon level at fixed concentration” value (@ 20 μM, Renilla luciferase HCV replicon cells 2209-23) was 62% @ 20.

In the case of Nc1nc(N)c2ncn([C@@H]3O[C@H](CO)[C@@H](O)[C@H]3F)c2n1 [9-(2-Deoxy-2-fluoro-β-D-ribofuranosyl)-2,6-diaminopurine], the IC50 is reported as 10 µM.
